According to patent publication US20250288583A1, “Treatment of Mucus Hypersecretion” (priority 2024, published 2025):

Legend:
[1] = human volunteers; cited from earlier work
ostiomeatal complex = test: Case study 6: WS-12 nebulization for dry mouth of obstructed breathing; assay type: in vivo, human
Source text: As hypersecretion of mucus was not the principal event, it was decided that a long-acting p-menthanecarboxamide, WS-12, might work well for the dry mouth. WS-12 was first discovered by the applicant to be a potent TRPM8 receptor agonist (Reynolds and Polakis, U.S. Pat. No. 7,893,072), and they supplied this reagent for testing and publications [see Bödding et al. (Cell Calcium. 42:618-28, 2007), and Sherkheli (J. Pharm. Pharmaceu. Sci. 13:242-53, 2010)]. WS-12 has weak cooling effects on the skin. WS-12 was later approved as a food additive (FEMA) for comestibles such as chewing gum. WS-12 is available online for about $USD 15 per 100 g. WS-12 was prepared at 10 mg/ml in 1% ethanol and 2% polysorbate 80 suspensions for a 5-see nebulization using the NasoNeb® apparatus in a volunteer subject and administered once before sleep.
The subject now uses the WS-12 on an occasional as-needed basis. The nasal polyps are still present upon endoscopic examination. The WS-12 chemical structure is ideal for use in obstructed breathing because it has an aryl moiety that increases lipophilicity (higher octanol-water partition coefficient). Lipophilicity increases retention in the nasal mucosa; thus, its action is long-lasting. […] Its actions are more gentle, with a mild coolness on the nasal surfaces. […]

[2] = see Table 8, Wei U.S. Pat. No. 8,258,320; cited from earlier work
hTRPM8 channel = target: T1, hTRPM8 channel (Homo sapiens, UniProt Q7Z2W7); test: TRPM8 receptor assay, calcium entry (Fluo-8, FLIPR) in transfected CHO cells; assay type: cell-based; conditions: FIG. 5
T1 construct: host or cells: CHO cells
Source text: FIG. 4. Agonist activities of TRPM8 analogs. […] The relative fluorescence (RF) unit on the ordinate represents calcium entry into transfected cells. […] The structures of these compounds are in Table 4.
The applicant has synthesized and examined a series of p-menthanecarboxamides conjugated to amino acid esters. […] This class of molecules is called N-alkylcarbonyl-amino acid esters. GlyOiPr is a p-menthanecarboxamide conjugate of glycine isopropyl (iPr) ester. It is similar in structure to WS-5, a cooling agent used as a food additive. WS-5 is the p-menthane-glycine ethyl (Et) ester, or GlyOEt. […] These in vitro effects were measured in CHO cells transfected with the hTRPM8 channel. Receptor activity was quantified using a Fluo-8 calcium kit and a Fluorescence Imaging Plate Reader ([…]™).

nasal cavity = test: Nebulizer screening of TRPM8 agonists for sensations in the nasal cavity; assay type: in vivo, human; conditions: NasoNeb nebulizer
Procedure: Formulations for nebulization with NasoNeb® used a standard recipe of (Table 8): 1% of the active ingredient (1 to 10 mg/mL), 2% Tween 80 (Polysorbate 80), 1 to 5% ethanol, and made up to 100% with water. The mixture is centrifuged in a FlackTek, Inc., Speedmixer for at least 10 min at 3000 rpm. The Speedmixer spins the sample in 3 dimensions. The result is a white homogeneous liquid suspension with some of the solids now dissolved. For dosing, ˜2 to 3 mL is loaded into the canister of the nebulizer. The nebulizer nozzle tip is placed in the nostril and activated by pressing a button for 3 to 5 sec using a clock timer. […] For D-Ala-OiPr a 5-sec activation will deliver 2*0.73 mL*2 mg/ml, or a total dose of 3 mg per nose. The nasal cavity is relatively tolerant to exogenous agents with irritant properties, as many rinses are used for rhinitis and sinusitis. For some p-menthanecarboxamide analogs, a 2% (20 mg/mL) solution is possible and contemplated. An ideal agent reproduces a comfortable cooling or sensations of negative heat flux in the nasal cavity. […] Heat flux refers to the rate of heat transfer per unit area. The sinonasal cavity mucosa differs from philtrum skin and ocular margins in histology, so the choice of the right molecule must be made by experiment. The TRPM8 agonists were chosen for screening using a nebulizer for delivery. The NasoNeb system is powerful and effective for the OMC (FIG. 3). The delivery time per nostril in three to five seconds. […] These parameters were estimated in the initial trials: • Onset and offset of cooling sensations in the nasal cavity. • The intensity and quality of the cooling sensations in the nasal cavity. • Presence of effects such as sneezing or cough after dosing. • Degree of nasal stuffiness on a scale of 0 to 5. • Degree of rhinorrhea and phlegm in nasal secretions. • Questions regarding comfort and sleep at night.

TRPA1 = target: T2, TRPA1 (Homo sapiens, UniProt O75762); conditions: Karashima et al., 2007; cited from earlier work
T2 construct: expressed in transfected cells

[3] = test system: goblet cells of human nasal epithelium; conditions: Liu et al., 2017; cited from earlier work

T2 sequence (O75762 whole entry, species assumed): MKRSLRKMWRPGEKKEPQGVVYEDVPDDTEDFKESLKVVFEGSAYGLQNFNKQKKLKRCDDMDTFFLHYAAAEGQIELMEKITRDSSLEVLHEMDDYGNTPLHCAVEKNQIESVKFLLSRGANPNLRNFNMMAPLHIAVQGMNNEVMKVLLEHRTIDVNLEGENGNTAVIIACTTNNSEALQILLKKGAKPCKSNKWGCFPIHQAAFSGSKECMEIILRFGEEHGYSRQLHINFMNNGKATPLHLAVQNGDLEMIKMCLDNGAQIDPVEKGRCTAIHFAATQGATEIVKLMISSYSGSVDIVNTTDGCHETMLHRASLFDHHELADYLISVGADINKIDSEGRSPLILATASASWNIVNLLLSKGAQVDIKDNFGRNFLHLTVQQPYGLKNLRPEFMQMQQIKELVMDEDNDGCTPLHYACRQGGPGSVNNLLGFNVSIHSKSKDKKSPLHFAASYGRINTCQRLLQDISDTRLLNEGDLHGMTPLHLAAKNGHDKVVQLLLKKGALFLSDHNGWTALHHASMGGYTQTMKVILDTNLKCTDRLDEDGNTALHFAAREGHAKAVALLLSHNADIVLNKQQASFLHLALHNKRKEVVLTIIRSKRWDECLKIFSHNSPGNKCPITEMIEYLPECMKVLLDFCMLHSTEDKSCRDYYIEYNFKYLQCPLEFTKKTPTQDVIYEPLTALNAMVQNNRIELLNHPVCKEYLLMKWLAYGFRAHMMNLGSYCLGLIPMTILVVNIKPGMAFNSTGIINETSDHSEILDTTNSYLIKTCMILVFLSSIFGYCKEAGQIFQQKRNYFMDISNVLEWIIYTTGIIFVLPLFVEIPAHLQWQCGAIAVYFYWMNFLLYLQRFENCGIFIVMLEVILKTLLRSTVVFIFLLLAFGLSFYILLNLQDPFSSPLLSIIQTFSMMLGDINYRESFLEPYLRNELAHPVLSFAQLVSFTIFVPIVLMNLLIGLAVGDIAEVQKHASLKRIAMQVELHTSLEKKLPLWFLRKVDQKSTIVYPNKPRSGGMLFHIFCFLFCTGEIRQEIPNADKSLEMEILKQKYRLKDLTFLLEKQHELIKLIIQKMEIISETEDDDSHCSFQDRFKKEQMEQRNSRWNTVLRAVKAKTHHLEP
T1 sequence (Q7Z2W7 whole entry): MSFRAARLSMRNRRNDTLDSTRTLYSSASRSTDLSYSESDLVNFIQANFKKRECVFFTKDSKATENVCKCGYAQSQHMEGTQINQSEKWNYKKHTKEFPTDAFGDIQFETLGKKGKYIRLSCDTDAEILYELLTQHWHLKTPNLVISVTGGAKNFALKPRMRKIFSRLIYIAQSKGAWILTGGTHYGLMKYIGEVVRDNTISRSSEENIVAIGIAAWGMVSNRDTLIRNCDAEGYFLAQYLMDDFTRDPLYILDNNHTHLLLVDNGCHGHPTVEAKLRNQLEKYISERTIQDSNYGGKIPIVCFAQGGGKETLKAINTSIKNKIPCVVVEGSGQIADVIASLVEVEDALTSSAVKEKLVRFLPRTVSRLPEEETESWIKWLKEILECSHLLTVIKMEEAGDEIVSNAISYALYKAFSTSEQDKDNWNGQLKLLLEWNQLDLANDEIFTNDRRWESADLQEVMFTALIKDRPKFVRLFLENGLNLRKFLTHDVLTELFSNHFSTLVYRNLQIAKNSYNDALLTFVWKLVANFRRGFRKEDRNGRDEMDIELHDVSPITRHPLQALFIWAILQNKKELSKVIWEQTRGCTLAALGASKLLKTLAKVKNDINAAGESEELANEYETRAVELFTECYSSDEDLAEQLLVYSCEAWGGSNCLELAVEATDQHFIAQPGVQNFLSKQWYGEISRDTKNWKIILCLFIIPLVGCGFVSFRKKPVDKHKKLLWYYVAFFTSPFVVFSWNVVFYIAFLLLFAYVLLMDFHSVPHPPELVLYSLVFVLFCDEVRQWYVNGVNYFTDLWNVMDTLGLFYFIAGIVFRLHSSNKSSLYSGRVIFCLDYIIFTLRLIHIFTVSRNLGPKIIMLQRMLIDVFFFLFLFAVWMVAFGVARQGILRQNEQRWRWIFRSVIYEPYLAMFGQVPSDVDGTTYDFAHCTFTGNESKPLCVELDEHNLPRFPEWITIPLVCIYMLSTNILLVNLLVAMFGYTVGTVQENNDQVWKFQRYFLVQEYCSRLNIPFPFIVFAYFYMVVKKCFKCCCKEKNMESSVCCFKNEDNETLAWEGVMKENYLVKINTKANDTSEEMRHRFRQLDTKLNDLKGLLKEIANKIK

For `COc1ccc2c(c1)n(CCN)c(=O)n2C(=O)[C@@H]1C[C@H](C)CC[C@H]1C(C)C.Cl` [D-2363], the Troponin plasma levels [1] is listed as “elevated troponin plasma levels”.
In the case of `COc1ccc(NC(=O)[C@@H]2C[C@H](C)CC[C@H]2C(C)C)cc1` [WS-12, (1R,2S,5R)-2-isopropyl-N-(4-methoxyphenyl)-5-methyl-cyclohexanecarboxamide], the “Effect on dry mouth symptoms” value (ostiomeatal complex; WS-12 10 mg/ml in 1% ethanol and 2% polysorbate 80, 5-sec nebulization once before sleep) is listed as “dry mouth symptoms disappeared after three days of use”, the “Effect with manual spraying” value (ostiomeatal complex; manual sprayer instead of electronically powered nebulizer) is listed as “does not work well” and the “Octanol/water partition coefficient among the p-menthanecarboxamides” value [2] is listed as “highest”.
With `CC(C)[C@@H]1CC[C@@H](C)C[C@H]1O` [l-menthol, (1R,2S,5R)-2-isopropyl-5-methyl-cyclohexanol [(−)-menthol], reference compound] the “Activity on TRPM8 transfected cells” value (hTRPM8 channel) was “active”, the “Cooling duration in the nasal cavity” value (nasal cavity) was ~7 min and the “Sensory effects after delivery into the nasal cavity” value (nasal cavity; 3 to 5 sec per nostril) was “Strong cool, clear breathing. Eye irritant, causes rhinorrehea”. For the same compound, the “Potency on TRPA1 compared with TRPM8” value (TRPA1) was “interacts with TRPA1 at a greater potency than TRPM8” and the MUC5AC secretion [3] was “stimulates MUC5AC”.
